Read-outs that look alike come from different tables or passages of the source. Marks after values point to notes of the source that are not given here.
Key:
GLP-1R = biological target: T1, GLP-1R (Homo sapiens, UniProt P43220); assay: In vitro cell activity, cAMP production in HEK293 cells expressing GLP-1R; type: cell-based
T1 construct: expressed in transfected cells; host or cells: HEK293 (HEK293-GLP-1R)
Outline: (§1)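 HEK293 transfectants, 4×10^5 cells/mL, 384-well. Detection: cAMP-d2 + anti-cAMP cryptate 1:1, RT 1 h dark or 4 °C o/n. Read 665/620 nm; 4-parameter nonlinear fit → EC50.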

GCGR = biological target: T2, GCGR (Homo sapiens, UniProt P47871); assay: In vitro cell activity, cAMP production in HEK293 cells expressing GCGR; type: cell-based
T2 construct: expressed in transfected cells; host or cells: HEK293 (HEK293-GCGR)
Outline: as §1

[1] = Glucose tolerance assessment in normal C57BL/6 mice (Example 4); type: in vivo
Outline: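 Twelve hours after a single administration, mice were fasted 12 h and then given 2 g/kg glucose i.p. Tail-vein blood glucose was measured at baseline and at 15, 30, 60 and 90 min. AUC0–90min was calculated per dose group at 24 h post-dose.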

GIPR = biological target: T3, GIPR (Homo sapiens, UniProt P48546); assay: In vitro cell activity, cAMP production in HEK293 cells expressing GIPR; type: cell-based
T3 construct: expressed in transfected cells; host or cells: HEK293 (HEK293-GIPR)
T3 sequence (P48546 22-466): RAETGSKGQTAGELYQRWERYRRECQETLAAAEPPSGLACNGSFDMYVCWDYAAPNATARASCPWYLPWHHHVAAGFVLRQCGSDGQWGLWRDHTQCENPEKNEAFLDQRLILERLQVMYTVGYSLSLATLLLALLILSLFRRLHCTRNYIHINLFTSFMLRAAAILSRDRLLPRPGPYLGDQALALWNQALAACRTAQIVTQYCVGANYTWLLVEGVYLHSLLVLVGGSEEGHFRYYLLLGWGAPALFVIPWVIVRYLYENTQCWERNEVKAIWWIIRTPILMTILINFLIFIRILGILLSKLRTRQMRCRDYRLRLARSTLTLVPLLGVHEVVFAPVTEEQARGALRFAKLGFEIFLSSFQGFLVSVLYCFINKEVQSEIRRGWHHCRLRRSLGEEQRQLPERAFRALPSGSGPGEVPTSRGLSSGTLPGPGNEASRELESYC
Outline: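 HEK293 cells expressing human GIPR, thawed and diluted to 4×10^5 cells/mL, are stimulated with test compound. cAMP is measured by HTRF competition between cAMP-d2 and anti-cAMP cryptate. EC50 comes from a four-parameter nonlinear fit of signal ratio against concentration.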

[2] = Pharmacokinetic study in rats, single subcutaneous injection; conditions: male, Sprague Dawley, in vivo, sc, rat
Method: The pharmacokinetic study of each polypeptide compound prepared in Example 1 was conducted using male Sprague Dawley rats. There were 3 male rats in each group. […] The dose was 50 nmol/kg, and a single subcutaneous injection was given (see Table 3 for specific peptide compounds). After administration, plasma was collected on the specified days and time points, and the concentration of each peptide compound in the plasma was detected by LC-MS/MS method. The pharmacokinetic parameters were obtained based on the concentration data, which were used to describe the pharmacokinetic properties of the peptide in rats after subcutaneous injection. Table 3: Summary of pharmacokinetic parameters of some triple-target peptides in rats

[3] = 50 nmol/kg single subcutaneous injection, plasma

T1 sequence (P43220 24-463, species assumed): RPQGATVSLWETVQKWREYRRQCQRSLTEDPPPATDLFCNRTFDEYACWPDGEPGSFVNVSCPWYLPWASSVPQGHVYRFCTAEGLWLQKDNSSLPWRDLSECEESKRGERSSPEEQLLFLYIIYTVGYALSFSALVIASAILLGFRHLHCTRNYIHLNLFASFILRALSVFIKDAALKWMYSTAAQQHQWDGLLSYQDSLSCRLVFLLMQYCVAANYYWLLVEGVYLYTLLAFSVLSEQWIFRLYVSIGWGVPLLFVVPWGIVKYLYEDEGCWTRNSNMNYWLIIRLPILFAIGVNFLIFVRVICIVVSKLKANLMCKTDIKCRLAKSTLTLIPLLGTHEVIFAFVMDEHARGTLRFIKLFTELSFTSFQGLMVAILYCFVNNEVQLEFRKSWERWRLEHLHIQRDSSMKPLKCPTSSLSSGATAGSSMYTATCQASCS
T2 sequence (P47871 26-477, species assumed): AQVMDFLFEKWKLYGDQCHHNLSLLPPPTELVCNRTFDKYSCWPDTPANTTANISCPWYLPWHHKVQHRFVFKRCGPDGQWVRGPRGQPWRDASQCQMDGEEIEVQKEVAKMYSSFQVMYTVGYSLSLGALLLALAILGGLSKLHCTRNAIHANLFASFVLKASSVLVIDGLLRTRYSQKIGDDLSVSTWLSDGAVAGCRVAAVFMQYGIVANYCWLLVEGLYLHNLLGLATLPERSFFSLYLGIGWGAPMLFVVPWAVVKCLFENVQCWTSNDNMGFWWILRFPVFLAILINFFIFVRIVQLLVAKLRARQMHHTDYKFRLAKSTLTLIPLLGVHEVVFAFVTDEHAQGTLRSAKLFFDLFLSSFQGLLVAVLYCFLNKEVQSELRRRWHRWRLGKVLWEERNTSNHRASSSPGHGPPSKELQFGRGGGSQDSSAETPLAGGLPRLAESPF

SMILES | EC50 (GLP-1R) | EC50 (GCGR) | Blood glucose level (mM) 15 min ([1]; 3 nmol/kg s.c. single dose, 24 h after administration, 15 min after 2 g/kg glucose i.p.) | Blood glucose level (mM) 30 min ([1]; 3 nmol/kg s.c. single dose, 24 h after administration, 30 min after 2 g/kg glucose i.p.) | Blood glucose level (mM) 60 min ([1]; 3 nmol/kg s.c. single dose, 24 h after administration, 60 min after 2 g/kg glucose i.p.) | Blood glucose level (mM) 90 min ([1]; 3 nmol/kg s.c. single dose, 24 h after administration, 90 min after 2 g/kg glucose i.p.) | Blood glucose level (mM) 0 min ([1]; 3 nmol/kg s.c. single dose, 24 h after administration, basal before 2 g/kg glucose i.p.) | improvement of glucose tolerance compared with LY3298176 ([1]; 24 hours after a single administration, 3 nmol/kg) | AUC0-90 min ([1]; blood glucose AUC, 3 nmol/kg s.c. single dose, 24 h after administration, 2 g/kg glucose i.p.) | EC50 (GIPR) | AUC(0-inf) [2, 3] | AUC(0-t) [2, 3] | Cmax [2, 3] | half-life ([2]; 50 nmol/kg single subcutaneous injection, plasma, read-out: T1/2 (converted)) | Tmax ([2]; 50 nmol/kg single subcutaneous injection, plasma, read-out: Tmax) | EC50 (GLP-1R; HEK293-GLP-1R cells, cAMP, read-out: GLP-1R (EC50)) | EC50 (GCGR; HEK293-GCGR cells, cAMP, read-out: GCGR (EC50)) | EC50 (GIPR; HEK293-GIPR cells, cAMP, read-out: GIPR (EC50)) | Tmax [2] | half-life ([2]; 50 nmol/kg)
CC[C@H](C)[C@H](NC(=O)[C@H](Cc1ccccc1)NC(=O)[C@H](C)NC(=O)[C@H](CCC(N)=O)NC(=O)[C@H](CCC(N)=O)NC(=O)[C@H](CCCNC(=N)N)NC(=O)[C@H](CCCCNC(=O)COCCOCCNC(=O)CC[C@H](NC(=O)CCCCCCCCCCCCCCCCC(=O)O)C(=O)O)NC(=O)[C@H](CCC(=O)O)NC(=O)[C@H](CC(=O)O)NC(=O)[C@H](CC(C)C)NC(=O)[C@H](CC(C)C)NC(=O)[C@@H](NC(=O)[C@H](CO)NC(=O)[C@H](Cc1ccc(O)cc1)NC(=O)[C@H](CC(=O)O)NC(=O)[C@H](CO)NC(=O)[C@@H](NC(=O)[C@](C)(Cc1ccccc1F)NC(=O)[C@@H](NC(=O)CNC(=O)[C@H](CCC(N)=O)NC(=O)C(C)(C)NC(=O)[C@@H](N)Cc1ccc(O)cc1)[C@@H](C)O)[C@@H](C)O)[C@@H](C)CC)C(=O)N[C@@H](CCC(=O)O)C(=O)N[C@@H](Cc1ccc(O)cc1)C(=O)N[C@@H](CC(C)C)C(=O)N[C@@H](CC(C)C)C(=O)N[C@@H](CCC(=O)O)C(=O)NCC(=O)NCC(=O)N1CCC[C@H]1C(=O)N[C@@H](CO)C(=O)N[C@@H](CO)C(=O)NCC(=O)N[C@@H](C)C(=O)N1CCC[C@H]1C(=O)N1CCC[C@H]1C(=O)N1CCC[C@H]1C(=O)N[C@@H](CO)C(=O)O [HEC-PT82] | 360 pM | 615 pM | 12.4 ± 4.3 mM | 7.6 ± 1.5 mM | 6.9 ± 0.8 mM | 6.6 ± 0.6 mM | 3.8 ± 0.6 mM | more effective in improving glucose tolerance than the positive control LY3298176 | 691.8±116.4^a | 83.1 pM | 29400 ± 3050 ng·h/mL | 29100 ± 3030 ng·h/mL | 836 ± 217 ng/mL | 17 ± 0.8 h | 8.7 ± 2.3 h |  |  |  |  | 
CC[C@H](C)[C@H](NC(=O)[C@H](Cc1ccccc1)NC(=O)[C@H](C)NC(=O)[C@H](CCC(N)=O)NC(=O)[C@H](CCC(N)=O)NC(=O)[C@H](CCCNC(=N)N)NC(=O)[C@H](CCCCNC(=O)COCCOCCNC(=O)CC[C@H](NC(=O)CCCCCCCCCCCCCCCCCCC(=O)O)C(=O)O)NC(=O)[C@H](CCC(=O)O)NC(=O)[C@H](CC(=O)O)NC(=O)[C@H](CC(C)C)NC(=O)[C@H](CC(C)C)NC(=O)[C@@H](NC(=O)[C@H](CO)NC(=O)[C@H](Cc1ccc(O)cc1)NC(=O)[C@H](CC(=O)O)NC(=O)[C@H](CO)NC(=O)[C@@H](NC(=O)[C@](C)(Cc1ccccc1F)NC(=O)[C@@H](NC(=O)CNC(=O)[C@H](Cc1c[nH]cn1)NC(=O)C(C)(C)NC(=O)[C@@H](N)Cc1ccc(O)cc1)[C@@H](C)O)[C@@H](C)O)[C@@H](C)CC)C(=O)N[C@@H](CCC(=O)O)C(=O)N[C@@H](Cc1ccc(O)cc1)C(=O)N[C@@H](CC(C)C)C(=O)N[C@@H](CC(C)C)C(=O)N[C@@H](CCC(=O)O)C(=O)NCC(=O)NCC(=O)N1CCC[C@H]1C(=O)N[C@@H](CO)C(=O)N[C@@H](CO)C(=O)NCC(=O)N[C@@H](C)C(=O)N1CCC[C@H]1C(=O)N1CCC[C@H]1C(=O)N1CCC[C@H]1C(=O)N[C@@H](CO)C(=O)O [HEC-PT93] |  |  |  |  |  |  |  |  |  |  |  |  |  |  |  | 1170 pM | 354 pM | 159 pM | 25 ± 2.3 h | 19 ± 1.2 h
